Test results taken from the supplement of paper PMC9663587.

Experiments:
Dasatinib = compound: Cc1nc(Nc2ncc(C(=O)Nc3c(C)cccc3Cl)s2)cc(N2CCN(CCO)CC2)n1 [Dasatinib]
[1] = compound: CC(=O)c1c(C)c2cnc(Nc3ccc(N4CCNCC4)cn3)nc2n(C2CCCC2)c1=O
Vorinostat = compound: O=C(CCCCCCC(=O)Nc1ccccc1)NO [Vorinostat]
Taselisib/GDC0032 = compound: Cc1nc(-c2cn3c(n2)-c2ccc(-c4cnn(C(C)(C)C(N)=O)c4)cc2OCC3)n(C(C)C)n1 [Taselisib/GDC0032]
AZD2014 = compound: CNC(=O)c1cccc(-c2ccc3c(N4CCOC[C@@H]4C)nc(N4CCOC[C@@H]4C)nc3n2)c1 [AZD2014]
Volasertib/BI6727 = compound: CC[C@@H]1C(=O)N(C)c2cnc(Nc3ccc(C(=O)N[C@H]4CC[C@H](N5CCN(CC6CC6)CC5)CC4)cc3OC)nc2N1C(C)C [Volasertib/BI6727]
THZ531 [2] = compound: T1, CN(C)C/C=C/C(=O)Nc1ccc(C(=O)N2CCC[C@@H](Nc3ncc(Cl)c(-c4c[nH]c5ccccc45)n3)C2)cc1 [THZ531]
Neratinib/HKI272 [3] = compound: T2, CCOc1cc2ncc(C#N)c(Nc3ccc(OCc4ccccn4)c(Cl)c3)c2cc1NC(=O)/C=C/CN(C)C [Neratinib/HKI272]
BSJ-01-175 = compound: CN(C)C/C=C/C(=O)Nc1ccc(O[C@@H]2CCC[C@@H](Nc3ncc(Cl)c(-c4c[nH]c5ccccc45)n3)C2)cc1 [BSJ-01-175]
BSJ-03-123 [4] = compound: T3, CC(=O)c1c(C)c2cnc(Nc3ccc(N4CCN(CCOCCOCCOCCNC(=O)COc5cccc6c5C(=O)N(C5CCC(=O)NC5=O)C6=O)CC4)cn3)nc2n(C2CCCC2)c1=O [BSJ-03-123]
Doxorubicin = compound: COc1cccc2c1C(=O)c1c(O)c3c(c(O)c1C2=O)C[C@@](O)(C(=O)CO)C[C@@H]3O[C@H]1C[C@H](N)[C@H](O)[C@H](C)O1 [Doxorubicin]
[5] = compound: CC(=O)Nc1cccc(-n2c(=O)n(C3CC3)c(=O)c3c(Nc4ccc(I)cc4F)n(C)c(=O)c(C)c32)c1
INK128/MLN0128 = compound: CC(C)n1nc(-c2ccc3oc(N)nc3c2)c2c(N)ncnc21 [INK128/MLN0128]
Ceritinib/LDK378 = compound: Cc1cc(Nc2ncc(Cl)c(Nc3ccccc3S(=O)(=O)C(C)C)n2)c(OC(C)C)cc1C1CCNCC1 [Ceritinib/LDK378]
[6] = compound: CO[C@@H](C)Cn1c(=O)n(C)c2cnc3ccc(-c4cncc(C(C)(C)O)c4)cc3c21
YKL-5-124 = compound: C=CC(=O)Nc1ccc(C(=O)Nc2[nH]nc3c2CN(C(=O)N[C@H](CN(C)C)c2ccccc2)C3(C)C)cc1 [YKL-5-124]; assay: increase in dead-cell fraction, 72 h; higher = more death;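 also: breast cancer cell lines in 384-well plates, stained with Hoechst plus LIVE/DEAD far red dye and imaged, cells above an LDR intensity threshold counted dead, Hoechst-negative corpses included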
THZ1 = compound: CN(C)C/C=C/C(=O)Nc1ccc(C(=O)Nc2cccc(Nc3ncc(Cl)c(-c4c[nH]c5ccccc45)n3)c2)cc1 [THZ1]; assay: as above
THZ531 [7] = compound: T1, THZ531; assay: as above
Neratinib/HKI272 [8] = compound: T2, Neratinib/HKI272; assay: as above
BSJ-03-123 [9] = compound: T3, BSJ-03-123; assay: as above
[10] = compound: CCc1cnn2c(NCc3ccc[n+]([O-])c3)cc(N3CCCC[C@H]3CCO)nc12; assay: as above
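For GR50, 72 h in this document: breast cancer and non-malignant breast epithelial cell lines, Deep Dye Drop or Dye Drop imaging, nine half-log doses, GR normalized to time-zero plates and DMSO-only controls.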

## CAL851
Dasatinib
  GR50, 72 h: 0.105 µM
[1]
  GR50, 72 h: > 3.16 µM
Vorinostat
  GR50, 72 h: 1.2 µM
Taselisib/GDC0032
  GR50, 72 h: 0.0604 µM
AZD2014
  GR50, 72 h: 0.00819 µM
Volasertib/BI6727
  GR50, 72 h: 0.00327 µM
THZ531 [2]
  GR50, 72 h: 0.0715 µM
Neratinib/HKI272 [3]
  GR50, 72 h: 0.0339 µM
BSJ-01-175
  GR50, 72 h: 0.0129 µM
BSJ-03-123 [4]
  GR50, 72 h: 0.431 µM
Doxorubicin
  GR50, 72 h: 0.00552 µM
[5]
  GR50, 72 h: 0.0132 µM
INK128/MLN0128
  GR50, 72 h: 0.00883 µM
Ceritinib/LDK378
  GR50, 72 h: 0.74 µM
[6]
  GR50, 72 h: < 0.001 µM
YKL-5-124; 0.001 µM
  increase in dead-cell fraction: 0.0613
YKL-5-124; 0.003162 µM
  increase in dead-cell fraction: 0.0965
YKL-5-124; 0.01 µM
  increase in dead-cell fraction: 0.0961
YKL-5-124; 0.03162 µM
  increase in dead-cell fraction: 0.1
YKL-5-124; 0.1 µM
  increase in dead-cell fraction: 0.12
YKL-5-124; 0.3162 µM
  increase in dead-cell fraction: 0.15
YKL-5-124; 1 µM
  increase in dead-cell fraction: 0.096
YKL-5-124; 3.162 µM
  increase in dead-cell fraction: 0.12
YKL-5-124; 10 µM
  increase in dead-cell fraction: 0.402
THZ1; 0.0001 µM
  increase in dead-cell fraction: -0.0023
THZ1; 0.0003162 µM
  increase in dead-cell fraction: -0.0015
THZ1; 0.001 µM
  increase in dead-cell fraction: 0.0049
THZ1; 0.003162 µM
  increase in dead-cell fraction: 0.0027
THZ1; 0.01 µM
  increase in dead-cell fraction: 0.0075
THZ1; 0.03162 µM
  increase in dead-cell fraction: 0.0208
THZ1; 0.1 µM
  increase in dead-cell fraction: 0.053
THZ1; 0.3162 µM
  increase in dead-cell fraction: 0.123
THZ1; 1 µM
  increase in dead-cell fraction: 0.402
THZ531 [7]; 0.0001 µM
  increase in dead-cell fraction: 0.0002
THZ531 [7]; 0.0003162 µM
  increase in dead-cell fraction: 0.0044
THZ531 [7]; 0.001 µM
  increase in dead-cell fraction: -0.0008
THZ531 [7]; 0.003162 µM
  increase in dead-cell fraction: 0.0011
THZ531 [7]; 0.01 µM
  increase in dead-cell fraction: 0.0061
THZ531 [7]; 0.03162 µM
  increase in dead-cell fraction: 0.0125
THZ531 [7]; 0.1 µM
  increase in dead-cell fraction: 0.0297
THZ531 [7]; 0.3162 µM
  increase in dead-cell fraction: 0.048
THZ531 [7]; 1 µM
  increase in dead-cell fraction: 0.0747
Neratinib/HKI272 [8]; 0.0003162 µM
  increase in dead-cell fraction: -0.0016
Neratinib/HKI272 [8]; 0.001 µM
  increase in dead-cell fraction: 0.0027
Neratinib/HKI272 [8]; 0.003162 µM
  increase in dead-cell fraction: 0.006
Neratinib/HKI272 [8]; 0.01 µM
  increase in dead-cell fraction: 0.0409
Neratinib/HKI272 [8]; 0.03162 µM
  increase in dead-cell fraction: 0.113
Neratinib/HKI272 [8]; 0.1 µM
  increase in dead-cell fraction: 0.199
Neratinib/HKI272 [8]; 0.3162 µM
  increase in dead-cell fraction: 0.29
Neratinib/HKI272 [8]; 1 µM
  increase in dead-cell fraction: 0.344
Neratinib/HKI272 [8]; 3.162 µM
  increase in dead-cell fraction: 0.542
BSJ-03-123 [9]; 0.001 µM
  increase in dead-cell fraction: -0.0043
BSJ-03-123 [9]; 0.003162 µM
  increase in dead-cell fraction: -0.0029
BSJ-03-123 [9]; 0.01 µM
  increase in dead-cell fraction: -0.0014
BSJ-03-123 [9]; 0.03162 µM
  increase in dead-cell fraction: 0.0058
BSJ-03-123 [9]; 0.1 µM
  increase in dead-cell fraction: 0.007
BSJ-03-123 [9]; 0.3162 µM
  increase in dead-cell fraction: 0.0046
BSJ-03-123 [9]; 1 µM
  increase in dead-cell fraction: 0.0134
BSJ-03-123 [9]; 3.162 µM
  increase in dead-cell fraction: 0.0379
BSJ-03-123 [9]; 10 µM
  increase in dead-cell fraction: 0.0921
[10]; 0.0001 µM
  increase in dead-cell fraction: -0.007
[10]; 0.0003162 µM
  increase in dead-cell fraction: -0.005
[10]; 0.001 µM
  increase in dead-cell fraction: 0.003
[10]; 0.003162 µM
  increase in dead-cell fraction: 0.0409
[10]; 0.01 µM
  increase in dead-cell fraction: 0.2
[10]; 0.03162 µM
  increase in dead-cell fraction: 0.147
[10]; 0.1 µM
  increase in dead-cell fraction: 0.205
[10]; 0.3162 µM
  increase in dead-cell fraction: 0.22
[10]; 1 µM
  increase in dead-cell fraction: 0.217

## MDAMB361
Dasatinib
  GR50, 72 h: 0.268 µM
[1]
  GR50, 72 h: 0.0196 µM
Vorinostat
  GR50, 72 h: 0.762 µM
Taselisib/GDC0032
  GR50, 72 h: 0.00177 µM
AZD2014
  GR50, 72 h: < 0.001 µM
Volasertib/BI6727
  GR50, 72 h: 0.00352 µM
THZ531 [2]
  GR50, 72 h: 0.0273 µM
Neratinib/HKI272 [3]
  GR50, 72 h: 0.152 µM
BSJ-01-175
  GR50, 72 h: 0.00163 µM
BSJ-03-123 [4]
  GR50, 72 h: 0.297 µM
Doxorubicin
  GR50, 72 h: 0.0123 µM
[5]
  GR50, 72 h: > 1 µM
INK128/MLN0128
  GR50, 72 h: 0.00362 µM
Ceritinib/LDK378
  GR50, 72 h: 0.266 µM
[6]
  GR50, 72 h: < 0.001 µM
YKL-5-124; 0.001 µM
  increase in dead-cell fraction: 0.0281
YKL-5-124; 0.003162 µM
  increase in dead-cell fraction: 0.0171
YKL-5-124; 0.01 µM
  increase in dead-cell fraction: 0.0264
YKL-5-124; 0.03162 µM
  increase in dead-cell fraction: 0.0267
YKL-5-124; 0.1 µM
  increase in dead-cell fraction: 0.0421
YKL-5-124; 0.3162 µM
  increase in dead-cell fraction: 0.0191
YKL-5-124; 1 µM
  increase in dead-cell fraction: 0.0241
YKL-5-124; 3.162 µM
  increase in dead-cell fraction: 0.0411
YKL-5-124; 10 µM
  increase in dead-cell fraction: 0.371
THZ1; 0.0001 µM
  increase in dead-cell fraction: -0.0046
THZ1; 0.0003162 µM
  increase in dead-cell fraction: -0.0085
THZ1; 0.001 µM
  increase in dead-cell fraction: -0.0074
THZ1; 0.003162 µM
  increase in dead-cell fraction: 0.0099
THZ1; 0.01 µM
  increase in dead-cell fraction: 0.016
THZ1; 0.03162 µM
  increase in dead-cell fraction: 0.0299
THZ1; 0.1 µM
  increase in dead-cell fraction: 0.166
THZ1; 0.3162 µM
  increase in dead-cell fraction: 0.246
THZ1; 1 µM
  increase in dead-cell fraction: 0.186
THZ531 [7]; 0.0001 µM
  increase in dead-cell fraction: -0.004
THZ531 [7]; 0.0003162 µM
  increase in dead-cell fraction: -0.0021
THZ531 [7]; 0.001 µM
  increase in dead-cell fraction: 0.0045
THZ531 [7]; 0.003162 µM
  increase in dead-cell fraction: -0.0062
THZ531 [7]; 0.01 µM
  increase in dead-cell fraction: -0.0039
THZ531 [7]; 0.03162 µM
  increase in dead-cell fraction: 0.0484
THZ531 [7]; 0.1 µM
  increase in dead-cell fraction: 0.454
THZ531 [7]; 0.3162 µM
  increase in dead-cell fraction: 0.219
THZ531 [7]; 1 µM
  increase in dead-cell fraction: 0.106
Neratinib/HKI272 [8]; 0.0003162 µM
  increase in dead-cell fraction: 0.0068
Neratinib/HKI272 [8]; 0.001 µM
  increase in dead-cell fraction: 0.0063
Neratinib/HKI272 [8]; 0.003162 µM
  increase in dead-cell fraction: 0.028
Neratinib/HKI272 [8]; 0.01 µM
  increase in dead-cell fraction: 0.0198
Neratinib/HKI272 [8]; 0.03162 µM
  increase in dead-cell fraction: 0.0227
Neratinib/HKI272 [8]; 0.1 µM
  increase in dead-cell fraction: 0.0339
Neratinib/HKI272 [8]; 0.3162 µM
  increase in dead-cell fraction: 0.0406
Neratinib/HKI272 [8]; 1 µM
  increase in dead-cell fraction: 0.105
Neratinib/HKI272 [8]; 3.162 µM
  increase in dead-cell fraction: 0.435
BSJ-03-123 [9]; 0.001 µM
  increase in dead-cell fraction: 0.0068
BSJ-03-123 [9]; 0.003162 µM
  increase in dead-cell fraction: 0.0047
BSJ-03-123 [9]; 0.01 µM
  increase in dead-cell fraction: 0.0008
BSJ-03-123 [9]; 0.03162 µM
  increase in dead-cell fraction: 0.006
BSJ-03-123 [9]; 0.1 µM
  increase in dead-cell fraction: 0.0093
BSJ-03-123 [9]; 0.3162 µM
  increase in dead-cell fraction: 0.0131
BSJ-03-123 [9]; 1 µM
  increase in dead-cell fraction: 0.0189
BSJ-03-123 [9]; 3.162 µM
  increase in dead-cell fraction: 0.0054
BSJ-03-123 [9]; 10 µM
  increase in dead-cell fraction: 0.0713
[10]; 0.0001 µM
  increase in dead-cell fraction: 0.0019
[10]; 0.0003162 µM
  increase in dead-cell fraction: -0.0027
[10]; 0.001 µM
  increase in dead-cell fraction: -0.0041
[10]; 0.003162 µM
  increase in dead-cell fraction: 0.0003
[10]; 0.01 µM
  increase in dead-cell fraction: 0.0259
[10]; 0.03162 µM
  increase in dead-cell fraction: 0.303
[10]; 0.1 µM
  increase in dead-cell fraction: 0.148
[10]; 0.3162 µM
  increase in dead-cell fraction: 0.14
[10]; 1 µM
  increase in dead-cell fraction: 0.153
